Laboratory results: ChEMBL document CHEMBL1201862, “PubChem BioAssay data set” (2004)
Active and inactive are the calls of the source.

Experiments:
Escherichia coli = assay: microbe, parasite or virus in culture
[1] = biological target: T1, G-protein coupled receptor 35 (Homo sapiens, UniProt Q9HC97); assay: SAR Analysis for the identification of Selective Antagonists of ERK1/2 Activity in GPR35-Overexpressing U2OS Cells. [Related pubchem assays: 2079, 2058 ]; type: functional, cell-based
[2] = biological target: T1, G-protein coupled receptor 35; assay: inhibition of zaprinast-stimulated GPR35 beta-arrestin translocation – imaging, U2OS, beta-arrestin-GFP, zaprinast agonist, primary screen (AID 2058); type: functional;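 note: antagonist potency meaning inhibition of agonist-induced arrestin redistribution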
[3] = biological target: Beta-2 adrenergic receptor (Homo sapiens, UniProt P07550); assay: ADRB2 activation measured by internalization – cell-based, FAP fluorogen, flow cytometry, cherry pick 1, dose response (AID 588763); type: functional
[4] = biological target: G-protein coupled receptor 55 (Homo sapiens, UniProt Q9Y2T6); assay: blockers of GPR55 signalling, imaged – imaging, image-based, counter-screen for GPR35 antagonist project, SAR follow-up (AID 2397); type: functional
HEK293 [5] = assay: cells; conditions: Homo sapiens
[6] = biological target: T2, Sentrin-specific protease 6 (Homo sapiens, UniProt Q9GZR1); type: functional;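 note: Luminescence-based dose-response confirmatory assay of SENP6 inhibition, following up an ultra-high-throughput screen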
T2 sequence (Q9GZR1 whole entry): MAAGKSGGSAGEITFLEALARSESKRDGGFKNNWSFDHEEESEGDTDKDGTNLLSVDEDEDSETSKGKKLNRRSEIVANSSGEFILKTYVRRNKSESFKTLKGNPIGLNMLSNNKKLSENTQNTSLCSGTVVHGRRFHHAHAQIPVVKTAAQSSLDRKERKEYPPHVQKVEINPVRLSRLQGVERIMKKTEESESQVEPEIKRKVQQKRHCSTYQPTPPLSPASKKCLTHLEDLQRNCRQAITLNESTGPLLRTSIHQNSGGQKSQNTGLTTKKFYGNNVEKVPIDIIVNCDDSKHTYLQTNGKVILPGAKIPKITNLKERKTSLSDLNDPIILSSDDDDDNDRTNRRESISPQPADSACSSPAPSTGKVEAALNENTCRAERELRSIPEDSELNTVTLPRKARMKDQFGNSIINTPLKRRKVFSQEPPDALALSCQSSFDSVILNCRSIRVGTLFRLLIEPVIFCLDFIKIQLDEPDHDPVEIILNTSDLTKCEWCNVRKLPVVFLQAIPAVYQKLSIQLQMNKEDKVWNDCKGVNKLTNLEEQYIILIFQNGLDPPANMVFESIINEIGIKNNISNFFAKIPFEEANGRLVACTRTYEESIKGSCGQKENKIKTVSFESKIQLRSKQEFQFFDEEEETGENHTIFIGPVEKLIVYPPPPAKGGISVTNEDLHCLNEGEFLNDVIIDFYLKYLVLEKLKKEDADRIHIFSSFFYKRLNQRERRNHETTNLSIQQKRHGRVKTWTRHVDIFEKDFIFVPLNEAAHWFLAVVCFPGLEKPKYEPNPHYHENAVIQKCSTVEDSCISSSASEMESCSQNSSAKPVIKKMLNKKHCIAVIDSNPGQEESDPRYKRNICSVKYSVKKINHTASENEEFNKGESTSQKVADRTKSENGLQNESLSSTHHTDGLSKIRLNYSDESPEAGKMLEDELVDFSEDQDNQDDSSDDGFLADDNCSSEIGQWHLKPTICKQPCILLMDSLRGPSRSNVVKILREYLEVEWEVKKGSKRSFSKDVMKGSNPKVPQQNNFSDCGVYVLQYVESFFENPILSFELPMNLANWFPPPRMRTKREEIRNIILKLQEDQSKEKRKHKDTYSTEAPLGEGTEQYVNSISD

[7] = biological target: T3, Sentrin-specific protease 8 (Homo sapiens, UniProt Q96LD8); type: functional;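 note: luminescence read-out of SENP8 inhibition, dose-response confirmation following an ultra-high-throughput screen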
T3 sequence (Q96LD8 whole entry): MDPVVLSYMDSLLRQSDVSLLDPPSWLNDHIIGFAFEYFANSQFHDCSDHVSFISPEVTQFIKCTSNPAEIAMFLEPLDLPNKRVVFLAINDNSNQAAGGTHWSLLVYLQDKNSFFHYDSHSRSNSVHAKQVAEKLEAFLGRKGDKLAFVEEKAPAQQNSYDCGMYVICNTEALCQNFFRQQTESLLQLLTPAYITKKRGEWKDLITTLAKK

[8] = biological target: T4, Sentrin-specific protease 7 (Homo sapiens, UniProt Q9BQF6); type: functional;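 note: Luminescence-based dose-response confirmation of ultra-high-throughput screening hits, measuring inhibition of SENP7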
T4 sequence (Q9BQF6 whole entry): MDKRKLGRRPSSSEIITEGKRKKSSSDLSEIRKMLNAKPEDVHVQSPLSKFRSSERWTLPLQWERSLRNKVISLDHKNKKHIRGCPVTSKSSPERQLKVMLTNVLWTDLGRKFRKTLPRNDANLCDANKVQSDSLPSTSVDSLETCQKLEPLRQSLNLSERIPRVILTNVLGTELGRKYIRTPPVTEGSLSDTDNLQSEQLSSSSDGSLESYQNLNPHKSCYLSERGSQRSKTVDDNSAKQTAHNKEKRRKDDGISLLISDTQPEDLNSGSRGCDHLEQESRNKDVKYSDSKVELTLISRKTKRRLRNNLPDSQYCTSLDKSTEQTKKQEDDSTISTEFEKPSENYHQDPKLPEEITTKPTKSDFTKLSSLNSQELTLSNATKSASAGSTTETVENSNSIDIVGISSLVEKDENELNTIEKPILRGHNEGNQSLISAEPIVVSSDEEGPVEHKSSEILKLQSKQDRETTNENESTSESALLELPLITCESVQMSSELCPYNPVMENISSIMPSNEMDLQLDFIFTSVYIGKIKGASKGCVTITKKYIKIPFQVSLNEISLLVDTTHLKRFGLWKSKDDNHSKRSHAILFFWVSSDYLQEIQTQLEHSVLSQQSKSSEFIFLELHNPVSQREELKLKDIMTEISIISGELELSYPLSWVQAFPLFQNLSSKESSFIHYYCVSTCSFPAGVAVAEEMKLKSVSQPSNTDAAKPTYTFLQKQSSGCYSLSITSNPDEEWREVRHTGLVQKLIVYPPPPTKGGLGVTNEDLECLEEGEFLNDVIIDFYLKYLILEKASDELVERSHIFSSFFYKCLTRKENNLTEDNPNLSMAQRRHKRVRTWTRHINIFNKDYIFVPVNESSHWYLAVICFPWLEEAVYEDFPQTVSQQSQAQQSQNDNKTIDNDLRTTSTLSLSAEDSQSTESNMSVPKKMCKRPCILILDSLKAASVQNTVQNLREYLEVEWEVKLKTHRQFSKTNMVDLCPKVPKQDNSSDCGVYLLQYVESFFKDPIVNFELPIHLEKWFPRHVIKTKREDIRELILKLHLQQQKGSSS

HEK293 [9] = assay: cells; conditions: Homo sapiens; remark: listed apart in the source
Caspase-3 = biological target: T5, Caspase-3 (Homo sapiens, UniProt P42574); type: functional;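 note: Dose-response selectivity test against caspase-3 for candidate inhibitors of sentrin-specific proteases (SENPs)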
T5 sequence (P42574 whole entry): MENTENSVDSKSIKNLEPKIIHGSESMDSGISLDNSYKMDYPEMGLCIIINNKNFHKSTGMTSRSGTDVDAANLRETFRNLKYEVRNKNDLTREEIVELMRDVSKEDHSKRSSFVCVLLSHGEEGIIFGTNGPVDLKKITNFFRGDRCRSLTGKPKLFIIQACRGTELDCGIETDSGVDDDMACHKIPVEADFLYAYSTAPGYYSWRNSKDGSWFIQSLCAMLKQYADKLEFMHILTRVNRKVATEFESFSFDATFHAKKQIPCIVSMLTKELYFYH

Hexokinase-1 = Hexokinase-1 (Homo sapiens, UniProt P19367); assay: SAR analysis of small molecule inhibitors of hexokinase domain containing I (HKDC1) in the hexokinase 1 selectivity assay. [Related pubchem assays (depositor defined):AID493160, AID493190]; type: functional
Hexokinase HKDC1 = biological target: T6, Hexokinase HKDC1 (Homo sapiens, UniProt Q2TB90); assay: SAR analysis of small molecule inhibitors of hexokinase domain containing I (HKDC1). [Related pubchem assays (depositor defined):AID493160, AID493190]; type: functional
T6 sequence (Q2TB90 whole entry): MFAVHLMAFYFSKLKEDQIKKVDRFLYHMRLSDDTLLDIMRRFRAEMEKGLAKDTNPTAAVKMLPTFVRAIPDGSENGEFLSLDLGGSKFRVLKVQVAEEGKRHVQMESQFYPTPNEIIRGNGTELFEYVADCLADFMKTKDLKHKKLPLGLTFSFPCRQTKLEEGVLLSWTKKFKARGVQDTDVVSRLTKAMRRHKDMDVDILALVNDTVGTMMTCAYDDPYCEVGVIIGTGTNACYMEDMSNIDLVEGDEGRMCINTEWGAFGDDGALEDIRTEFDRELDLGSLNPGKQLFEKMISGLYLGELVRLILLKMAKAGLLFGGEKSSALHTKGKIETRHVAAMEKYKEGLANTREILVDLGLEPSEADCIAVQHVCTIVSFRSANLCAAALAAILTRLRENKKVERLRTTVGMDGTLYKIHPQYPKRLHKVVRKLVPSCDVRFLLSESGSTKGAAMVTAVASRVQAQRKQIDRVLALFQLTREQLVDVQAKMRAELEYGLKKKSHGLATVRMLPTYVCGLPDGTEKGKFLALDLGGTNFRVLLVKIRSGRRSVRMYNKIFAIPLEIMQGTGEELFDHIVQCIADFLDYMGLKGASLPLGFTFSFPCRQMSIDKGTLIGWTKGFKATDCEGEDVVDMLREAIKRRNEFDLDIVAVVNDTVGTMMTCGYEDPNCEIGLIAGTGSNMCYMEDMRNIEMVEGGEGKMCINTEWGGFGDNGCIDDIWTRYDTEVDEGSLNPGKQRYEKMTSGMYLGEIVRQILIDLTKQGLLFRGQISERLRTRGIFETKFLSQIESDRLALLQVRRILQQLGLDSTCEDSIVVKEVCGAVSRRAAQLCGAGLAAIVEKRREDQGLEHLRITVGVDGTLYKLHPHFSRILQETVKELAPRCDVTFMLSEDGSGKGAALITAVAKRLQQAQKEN

[10] = biological target: Short transient receptor potential channel 6 (Mus musculus, UniProt Q61143); assay: mouse TRPC6 channel blockers, concentration series – HEK293 cells, membrane potential dye, IC50, selectivity assay for selective TRPC4 inhibitor project, dose response (AID 492987); type: functional, cell-based
[11] = biological target: T7, Short transient receptor potential channel 4 (Mus musculus, UniProt Q9QUQ5); assay: potency of mouse TRPC4 calcium flux blockers – cell-based, HEK293 TRPC4/mu-opioid, DAMGO stimulus, Fluo-4, dose response (AID 492994); type: functional
T7 sequence (Q9QUQ5 whole entry): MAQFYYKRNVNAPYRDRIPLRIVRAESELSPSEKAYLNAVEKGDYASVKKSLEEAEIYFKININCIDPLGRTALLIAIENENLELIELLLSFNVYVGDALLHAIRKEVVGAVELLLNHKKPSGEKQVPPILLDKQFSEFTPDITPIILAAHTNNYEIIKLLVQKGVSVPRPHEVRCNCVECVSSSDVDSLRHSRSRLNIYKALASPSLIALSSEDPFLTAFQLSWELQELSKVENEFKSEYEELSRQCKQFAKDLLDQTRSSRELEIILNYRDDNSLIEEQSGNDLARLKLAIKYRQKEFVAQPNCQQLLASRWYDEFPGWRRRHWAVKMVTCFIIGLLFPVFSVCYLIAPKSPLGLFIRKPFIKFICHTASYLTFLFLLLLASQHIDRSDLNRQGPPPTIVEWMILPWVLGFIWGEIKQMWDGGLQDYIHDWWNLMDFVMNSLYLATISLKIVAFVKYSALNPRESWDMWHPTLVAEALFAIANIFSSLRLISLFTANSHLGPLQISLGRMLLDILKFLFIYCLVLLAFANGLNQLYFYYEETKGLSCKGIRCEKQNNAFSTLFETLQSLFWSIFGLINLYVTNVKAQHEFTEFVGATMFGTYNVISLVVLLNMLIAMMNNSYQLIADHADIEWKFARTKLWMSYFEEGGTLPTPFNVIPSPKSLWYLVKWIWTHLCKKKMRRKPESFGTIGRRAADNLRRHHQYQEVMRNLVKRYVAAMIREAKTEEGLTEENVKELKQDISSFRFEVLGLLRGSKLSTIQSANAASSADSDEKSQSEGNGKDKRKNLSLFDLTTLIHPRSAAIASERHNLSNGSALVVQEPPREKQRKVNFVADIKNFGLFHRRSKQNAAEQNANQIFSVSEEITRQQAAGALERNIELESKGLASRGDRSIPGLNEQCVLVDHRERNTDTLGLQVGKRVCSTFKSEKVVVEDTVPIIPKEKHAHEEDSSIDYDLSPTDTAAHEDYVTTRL

Phospholipase D2 = Phospholipase D2 (Homo sapiens, UniProt O14939); assay: cellular phospholipase D2 inhibition IC50 – cell-based, dose response (AID 602147); type: functional;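 note: cellular assay in HEK293 cells overexpressing GFP-tagged PLD2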
Phospholipase D1 = Phospholipase D1 (Homo sapiens, UniProt Q13393); assay: cellular phospholipase D1 inhibition IC50 – cell-based, dose response (AID 602151); type: functional;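 note: cellular PLD1 assay in Calu-1 cells stimulated with PMA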
Chain of Phospholipase D1 (Q13393 whole entry): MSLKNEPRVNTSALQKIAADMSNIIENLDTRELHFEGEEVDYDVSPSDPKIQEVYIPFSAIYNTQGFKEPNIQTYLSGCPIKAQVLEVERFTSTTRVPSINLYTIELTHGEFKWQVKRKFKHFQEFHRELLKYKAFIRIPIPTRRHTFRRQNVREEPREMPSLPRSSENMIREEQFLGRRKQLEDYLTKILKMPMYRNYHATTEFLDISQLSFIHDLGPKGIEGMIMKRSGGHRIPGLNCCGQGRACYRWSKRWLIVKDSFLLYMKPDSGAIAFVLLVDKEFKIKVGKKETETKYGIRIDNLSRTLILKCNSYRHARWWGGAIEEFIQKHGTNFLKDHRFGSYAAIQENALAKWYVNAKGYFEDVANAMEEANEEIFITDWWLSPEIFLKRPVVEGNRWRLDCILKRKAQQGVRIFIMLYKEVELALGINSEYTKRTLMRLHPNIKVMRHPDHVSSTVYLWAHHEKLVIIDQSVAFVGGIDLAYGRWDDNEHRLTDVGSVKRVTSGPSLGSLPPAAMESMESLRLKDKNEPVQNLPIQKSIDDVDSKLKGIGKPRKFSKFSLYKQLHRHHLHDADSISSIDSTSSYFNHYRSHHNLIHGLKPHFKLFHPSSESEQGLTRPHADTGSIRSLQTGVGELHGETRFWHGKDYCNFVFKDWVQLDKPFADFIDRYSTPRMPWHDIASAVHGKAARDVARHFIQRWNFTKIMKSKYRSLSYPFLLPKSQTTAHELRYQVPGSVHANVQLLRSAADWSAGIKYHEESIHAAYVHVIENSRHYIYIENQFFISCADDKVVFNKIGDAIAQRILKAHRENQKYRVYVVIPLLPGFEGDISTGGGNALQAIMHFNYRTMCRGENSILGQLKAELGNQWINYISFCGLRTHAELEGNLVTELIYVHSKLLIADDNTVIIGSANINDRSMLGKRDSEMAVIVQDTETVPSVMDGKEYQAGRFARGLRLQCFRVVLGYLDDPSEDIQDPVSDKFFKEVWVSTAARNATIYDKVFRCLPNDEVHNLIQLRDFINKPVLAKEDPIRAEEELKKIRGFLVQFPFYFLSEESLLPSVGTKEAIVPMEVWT

T1 sequence (Q9HC97 whole entry): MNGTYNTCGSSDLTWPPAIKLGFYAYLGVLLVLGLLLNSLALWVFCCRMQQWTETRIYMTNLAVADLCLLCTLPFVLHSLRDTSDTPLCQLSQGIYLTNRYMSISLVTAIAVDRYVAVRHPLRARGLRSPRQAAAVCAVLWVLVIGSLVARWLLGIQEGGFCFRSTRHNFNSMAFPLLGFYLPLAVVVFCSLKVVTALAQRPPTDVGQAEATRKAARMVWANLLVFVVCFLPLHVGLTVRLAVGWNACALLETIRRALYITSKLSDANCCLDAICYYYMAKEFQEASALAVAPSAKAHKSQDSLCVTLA
Chain of G-protein coupled receptor 55 (Q9Y2T6 whole entry): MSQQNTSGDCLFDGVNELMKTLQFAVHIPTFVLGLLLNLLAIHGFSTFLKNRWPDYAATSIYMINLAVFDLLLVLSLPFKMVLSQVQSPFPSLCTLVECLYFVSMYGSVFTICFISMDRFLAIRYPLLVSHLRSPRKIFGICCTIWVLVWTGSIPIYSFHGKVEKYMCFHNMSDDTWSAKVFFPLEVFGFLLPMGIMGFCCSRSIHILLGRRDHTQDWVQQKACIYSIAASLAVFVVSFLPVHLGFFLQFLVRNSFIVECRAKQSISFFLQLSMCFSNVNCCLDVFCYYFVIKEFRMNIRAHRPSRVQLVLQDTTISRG
Chain of Phospholipase D2 (O14939 whole entry): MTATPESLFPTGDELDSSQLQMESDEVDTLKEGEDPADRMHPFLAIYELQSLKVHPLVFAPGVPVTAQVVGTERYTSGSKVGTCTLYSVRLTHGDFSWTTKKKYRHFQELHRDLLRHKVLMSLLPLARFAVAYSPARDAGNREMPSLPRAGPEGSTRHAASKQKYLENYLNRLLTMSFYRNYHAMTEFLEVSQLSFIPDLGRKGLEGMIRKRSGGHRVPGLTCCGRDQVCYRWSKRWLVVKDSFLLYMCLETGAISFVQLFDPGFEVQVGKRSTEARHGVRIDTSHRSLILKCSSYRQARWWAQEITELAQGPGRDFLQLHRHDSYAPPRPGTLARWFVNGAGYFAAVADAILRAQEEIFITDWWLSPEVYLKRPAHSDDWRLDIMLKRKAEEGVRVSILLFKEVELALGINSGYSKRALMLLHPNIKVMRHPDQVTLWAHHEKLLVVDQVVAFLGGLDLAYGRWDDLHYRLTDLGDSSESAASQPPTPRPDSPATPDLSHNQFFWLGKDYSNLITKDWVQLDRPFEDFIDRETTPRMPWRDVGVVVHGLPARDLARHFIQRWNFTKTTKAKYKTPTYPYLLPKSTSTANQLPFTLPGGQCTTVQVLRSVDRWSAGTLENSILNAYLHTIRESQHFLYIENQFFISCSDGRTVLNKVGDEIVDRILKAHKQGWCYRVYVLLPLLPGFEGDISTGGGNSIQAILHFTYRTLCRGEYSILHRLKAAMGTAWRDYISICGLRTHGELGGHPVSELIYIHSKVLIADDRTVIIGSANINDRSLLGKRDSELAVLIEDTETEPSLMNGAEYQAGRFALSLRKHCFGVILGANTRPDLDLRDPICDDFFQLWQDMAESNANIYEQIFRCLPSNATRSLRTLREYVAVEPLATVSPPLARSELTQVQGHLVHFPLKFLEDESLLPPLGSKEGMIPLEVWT
Chain of Beta-2 adrenergic receptor (P07550 whole entry): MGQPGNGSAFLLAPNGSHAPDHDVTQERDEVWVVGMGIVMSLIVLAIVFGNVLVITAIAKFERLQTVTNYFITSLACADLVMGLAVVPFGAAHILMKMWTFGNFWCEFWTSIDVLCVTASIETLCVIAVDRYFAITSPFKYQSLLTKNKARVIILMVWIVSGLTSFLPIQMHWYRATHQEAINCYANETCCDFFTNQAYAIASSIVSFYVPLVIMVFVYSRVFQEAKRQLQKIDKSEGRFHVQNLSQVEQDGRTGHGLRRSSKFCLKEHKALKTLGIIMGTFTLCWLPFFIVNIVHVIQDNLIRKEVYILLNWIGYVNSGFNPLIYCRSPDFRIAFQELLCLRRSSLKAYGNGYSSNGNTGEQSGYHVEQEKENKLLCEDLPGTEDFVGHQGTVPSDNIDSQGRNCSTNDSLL
Chain of Hexokinase-1 (P19367 whole entry, the tested form may be a part): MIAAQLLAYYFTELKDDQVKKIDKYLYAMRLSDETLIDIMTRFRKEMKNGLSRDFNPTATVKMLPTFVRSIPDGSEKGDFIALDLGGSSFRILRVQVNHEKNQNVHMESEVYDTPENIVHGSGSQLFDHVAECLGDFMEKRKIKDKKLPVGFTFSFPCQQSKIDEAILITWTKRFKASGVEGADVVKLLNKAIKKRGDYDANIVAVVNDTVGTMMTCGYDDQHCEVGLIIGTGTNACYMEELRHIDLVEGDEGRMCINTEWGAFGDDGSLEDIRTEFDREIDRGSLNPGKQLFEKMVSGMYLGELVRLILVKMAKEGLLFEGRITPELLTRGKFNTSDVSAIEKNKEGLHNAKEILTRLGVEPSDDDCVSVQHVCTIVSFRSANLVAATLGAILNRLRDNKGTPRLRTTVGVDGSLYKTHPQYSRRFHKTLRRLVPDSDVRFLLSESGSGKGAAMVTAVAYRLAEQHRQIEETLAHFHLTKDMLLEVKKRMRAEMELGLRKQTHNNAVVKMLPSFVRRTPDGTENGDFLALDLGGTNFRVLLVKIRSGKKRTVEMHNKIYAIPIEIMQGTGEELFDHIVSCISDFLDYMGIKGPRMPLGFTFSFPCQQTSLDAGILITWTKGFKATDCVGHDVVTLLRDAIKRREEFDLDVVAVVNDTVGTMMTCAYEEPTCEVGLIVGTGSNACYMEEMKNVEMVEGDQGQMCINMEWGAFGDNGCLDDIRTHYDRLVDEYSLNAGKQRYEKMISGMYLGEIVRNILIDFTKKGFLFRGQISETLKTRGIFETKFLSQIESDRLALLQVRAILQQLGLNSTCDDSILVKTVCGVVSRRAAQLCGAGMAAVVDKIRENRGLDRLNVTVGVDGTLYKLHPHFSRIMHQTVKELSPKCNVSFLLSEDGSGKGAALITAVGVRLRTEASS
Chain of Short transient receptor potential channel 6 (Q61143 whole entry): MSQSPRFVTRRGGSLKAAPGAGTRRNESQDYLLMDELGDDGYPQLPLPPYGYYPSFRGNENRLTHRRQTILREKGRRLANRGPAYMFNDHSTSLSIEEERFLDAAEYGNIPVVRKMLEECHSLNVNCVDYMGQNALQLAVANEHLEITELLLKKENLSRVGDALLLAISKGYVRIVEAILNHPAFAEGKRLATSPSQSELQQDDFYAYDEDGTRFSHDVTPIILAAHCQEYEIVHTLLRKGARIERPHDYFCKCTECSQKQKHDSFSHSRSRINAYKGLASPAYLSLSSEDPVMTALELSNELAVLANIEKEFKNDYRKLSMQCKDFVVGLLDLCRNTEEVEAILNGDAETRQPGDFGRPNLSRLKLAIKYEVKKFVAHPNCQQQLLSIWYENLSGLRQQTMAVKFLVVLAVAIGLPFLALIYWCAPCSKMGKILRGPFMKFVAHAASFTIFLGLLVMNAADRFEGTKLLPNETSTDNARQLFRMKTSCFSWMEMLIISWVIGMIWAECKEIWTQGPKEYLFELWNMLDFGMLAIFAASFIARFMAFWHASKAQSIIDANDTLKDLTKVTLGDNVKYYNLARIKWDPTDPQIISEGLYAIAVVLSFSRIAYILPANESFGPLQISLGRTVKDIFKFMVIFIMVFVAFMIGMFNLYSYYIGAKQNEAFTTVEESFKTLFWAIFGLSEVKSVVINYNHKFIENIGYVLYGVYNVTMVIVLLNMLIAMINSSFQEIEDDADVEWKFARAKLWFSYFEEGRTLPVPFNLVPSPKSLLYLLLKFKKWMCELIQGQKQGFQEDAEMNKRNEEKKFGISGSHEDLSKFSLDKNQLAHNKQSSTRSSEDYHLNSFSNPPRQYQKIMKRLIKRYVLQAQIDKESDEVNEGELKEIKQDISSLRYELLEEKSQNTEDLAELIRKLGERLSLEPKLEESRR

**Q.** CCOC(=O)c1cc(C)sc1NC(=O)C(c1ccccc1)c1ccccc1 was tested. Which AC50 (Escherichia coli) did it give?
**A.** 123 µM (active)

**Q.** With O=C(Nc1ccc2nc(SCc3ccc(Cl)cc3)sc2c1)c1ccccc1C(=O)N1CCOCC1 as the molecule, how does the IC50 [1] read?
**A.** 16.5 µM (not active)

**Q.** And the IC50 [2]?
**A.** 0.768 µM (active)

**Q.** What about the EC50 [3] of the same molecule?
**A.** 1.74 µM (active)

**Q.** And the IC50 [4]?
**A.** > 32 µM (inactive)

**Q.** COc1cc(C#Cc2ccc3cc(CCCO)oc(=O)c3c2)cc(OC)c1 was tested. Which EC50 (HEK293 [5]) did it give?
**A.** > 59.6 µM (inactive)

**Q.** And the IC50 [6]?
**A.** 7.16 µM (active)

**Q.** What about the IC50 [7] of the same molecule?
**A.** 10.6 µM (active)

**Q.** And the IC50 [8]?
**A.** 2.81 µM (active)

**Q.** And the EC50 (HEK293 [9])?
**A.** > 59.6 µM (inactive)

**Q.** And the IC50 (Caspase-3)?
**A.** 21 µM (active)

**Q.** How did the IC50 (Hexokinase-1) turn out when O=c1c2ccccc2nc(/C=C/c2cccc(Br)c2)n1Cc1ccccc1 was run?
**A.** > 80 µM (inactive)

**Q.** What about the IC50 (Hexokinase HKDC1) of the same molecule?
**A.** > 80 µM (inactive)

**Q.** Which IC50 [10] does the source give for Cc1cc(N2CCC(N3CCOCC3)CC2)nc2ccccc12 here?
**A.** 16.9 µM (active)

**Q.** And the IC50 [11]?
**A.** 31.9 µM (active)

**Q.** Which IC50 (Phospholipase D2) does the source give for O=C(NCCN1CCC2(CC1)C(=O)NCN2c1cccc(F)c1)c1ccc(F)nc1 here?
**A.** 0.385 µM (active)

**Q.** What about the IC50 (Phospholipase D1) of the same molecule?
**A.** 17 µM (active)
